Biological target: Mitogen-activated protein kinase kinase kinase kinase 1 (Homo sapiens, UniProt Q92918)
Assay: Biochemical Enzyme Assay
Description: HPK1 biochemical enzyme assay: HPK1 enzyme inhibition was measured using a microfluidic mobility shift assay. […] Test compounds were titrated in ten point curves (top final assay concentration […]), and preincubated with enzyme/substrate mix for 30 min prior to initiation of the reaction by addition of ATP (1 mM final concentration) and substrate (1 μM final concentration; Carna Biosciences) diluted in assay buffer supplemented by MgCl2 (final assay concentration of 5 mM). Following 60 min incubation at RT, the reaction was terminated by addition of 60 µl/well termination buffer (Carna Biosciences) and signal determination using a Caliper EZ Reader (Perkin Elmer, UK).

Mitogen-activated protein kinase kinase kinase kinase 1, sequence (Q92918 whole entry): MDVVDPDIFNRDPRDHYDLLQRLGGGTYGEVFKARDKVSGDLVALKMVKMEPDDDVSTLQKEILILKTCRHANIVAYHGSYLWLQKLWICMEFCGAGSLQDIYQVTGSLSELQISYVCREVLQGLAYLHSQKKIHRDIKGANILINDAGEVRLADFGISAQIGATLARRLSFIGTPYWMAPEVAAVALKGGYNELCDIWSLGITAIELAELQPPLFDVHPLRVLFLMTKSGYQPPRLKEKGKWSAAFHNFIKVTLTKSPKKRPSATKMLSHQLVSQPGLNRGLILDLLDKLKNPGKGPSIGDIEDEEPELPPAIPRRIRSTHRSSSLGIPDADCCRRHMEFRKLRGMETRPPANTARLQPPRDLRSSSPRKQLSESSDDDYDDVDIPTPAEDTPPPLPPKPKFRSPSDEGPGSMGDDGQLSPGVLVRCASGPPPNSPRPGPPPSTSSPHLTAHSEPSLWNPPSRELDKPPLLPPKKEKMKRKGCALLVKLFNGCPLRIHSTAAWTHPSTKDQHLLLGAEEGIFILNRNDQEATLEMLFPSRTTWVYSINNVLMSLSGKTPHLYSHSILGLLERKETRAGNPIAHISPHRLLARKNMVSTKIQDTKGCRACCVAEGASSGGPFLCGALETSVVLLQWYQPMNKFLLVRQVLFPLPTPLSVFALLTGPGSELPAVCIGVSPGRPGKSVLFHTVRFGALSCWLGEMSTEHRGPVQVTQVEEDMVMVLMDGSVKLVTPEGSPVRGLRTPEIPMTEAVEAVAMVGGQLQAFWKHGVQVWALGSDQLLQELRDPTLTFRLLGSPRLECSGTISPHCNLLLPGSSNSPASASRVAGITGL

Row | Structure (SMILES) | IC50
1 | CN[C@@H]1CCCN(c2ccc(Nc3ccc(-c4ccnc5c4c(C)cn5C)c4c3C(=O)NC4)nc2)C1 [US11078201, Compound I-100] | < 0.1 µM
2 | Cn1cnc2c(-c3ccc(Nc4ccc(N5CCNCC5)cn4)c4c3CNC4=O)ccnc21 [US11078201, Compound I-122] | < 0.1 µM
3 | O=C1NCc2c(-c3cnc4cc(F)ccn34)ccc(Nc3ccc(N4CC5CCC(C5)C4)cn3)c21 [US11078201, Compound I-405] | < 0.1 µM
4 | Cn1ccc2c(-c3ncc(NC4C=CC(C5CCOC5)=C(CN5CCCC5)N4)c4c3CNC4=O)ccnc21 (stereo unspecified) [US11078201, Compound I-552] | < 0.1 µM
5 | CO[C@@H]1CN(c2ccc(Nc3ccc(-c4cnn5c4CCCC5)c4c3C(=O)NC4)nc2)[C@@H](CO)CO1 [US11078201, Compound I-571] | < 0.1 µM
6 | CN(C)Cc1nc(Nc2ccc(-c3cnc4cc(F)ccn34)c3c2C(=O)NC3)ccc1C1CC[C@H](F)[C@@H](O)C1 (stereo partly specified) [US11078201, Compound I-701] | < 0.1 µM

Now from value to compound:

Row | IC50 | Structure (SMILES)
7 | < 0.1 µM | CN1CCN(C2=CNC(Nc3cnc(-c4c(-c5ccccc5)[nH]c5ccccc45)c4c3C(=O)NC4)C=C2)CC1 (stereo unspecified) [US11078201, Compound I-141]
8 | < 0.1 µM | O=C1NCc2c(-c3cnn4nccnc34)ccc(Nc3ccc(N4CCC(O)CC4)cn3)c21 [US11078201, Compound I-157]
9 | < 0.1 µM | O=C1NCc2c(-c3cnc4cc(F)ccn34)ccc(Nc3ccc(N4C[C@@H]5CC[C@@H](C5)C4)cn3)c21 [US11078201, Compound I-404]
10 | < 0.1 µM | CN1C=CC2=C(c3ncc(Nc4cccc(N5CC[C@H]6CNC[C@H]65)n4)c4c3CNC4=O)C=CNC21 (stereo partly specified) [US11078201, Compound I-440]
11 | < 0.1 µM | CN(C)Cc1nc(Nc2ccc(-c3cnc4cc(F)ccn34)c3c2C(=O)NC3)ccc1C1CC[C@@H](F)[C@H](O)C1 (stereo partly specified) [US11078201, Compound I-700]

— BindingDB's records for patent US11078201 (Nimbus Saturn, 2021)
